In PubChem BioAssay (NCI):
Values joined by “and” are separate entries in the source; they are usually repeats but may differ in a detail not shown here. Equal values may be shown once.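 Tested at 5 concentrations; 48 h exposure; 96-well plates; endpoints linearly interpolated, else capped at highest concentration. GI50 marks 50% less growth. TGI: total growth inhibition.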

Legend:
Assay in all cases: inhibition of tumour cell growth, NCI panel, 48 h
[1] = test system: NCI-H23 lung
[2] = test system: ACHN renal
[3] = test system: PC-3 prostate
[4] = test system: SW-620 colon
[5] = test system: MCF7 breast
[6] = test system: IGROV1 ovarian
[7] = test system: RXF 393 renal
[8] = test system: UACC-257 melanoma
[9] = test system: SK-MEL-2 melanoma
[10] = test system: TK-10 renal

Structure (SMILES)	TGI [1]	TGI [2]	TGI [3]	TGI [4]	TGI [5]	TGI [6]	TGI [7]	TGI [8]	TGI [9]	TGI [10]	GI50 [5]	GI50 [6]	GI50 [7]
CC(C)C1=CC(=O)[C@@](C)(C2[C@H](O)C[C@@]3(C)[C@@H]4CC=C5[C@@H](CC[C@@H](OC6OCC(O)C(O)C6OC6OC(C)C(O)C(O)C6O)C5(C)C)[C@]4(C)C(=O)C[C@]23C)O1 (stereo partly specified)	> 100 µM	> 100 µM	> 100 µM	> 100 µM	> 100 µM	> 100 µM	> 100 µM	–	–	–	–	–	–
C[C@]12CC(c3ccccc3O1)C(C(=O)Nc1nc(C34CC5CC(CC(C5)C3)C4)cs1)C(=O)N2 (stereo partly specified)	> 100 µM	> 100 µM	> 100 µM	> 100 µM	> 100 µM	> 100 µM	> 100 µM	> 100 µM	> 100 µM	–	–	–	–
COC(=O)C1(SC)C2CCC3C2CCC31 (stereo unspecified)	> 100 µM	> 100 µM	> 100 µM	> 100 µM	> 100 µM	> 100 µM	> 100 µM	> 100 µM	> 100 µM	–	–	–	–
C(#CP(c1ccccc1)c1ccccc1)P(C#CP(c1ccccc1)c1ccccc1)c1ccccc1	–	> 100 µM	> 100 µM	> 100 µM	> 100 µM	> 100 µM	> 100 µM	> 100 µM	> 100 µM	> 100 µM	–	–	–
CCn1c(CCl)nc2c1C(=O)c1ccccc1C2=O	3.12 µM	13.2 µM	4.53 µM	2.75 µM	3.79 µM	3.86 µM	3.29 µM	3.36 µM	–	8.73 µM	–	–	–
O=C1CN(c2cccc(Cl)c2)C(=O)CN1NCNN1CC(=O)N(c2cccc(Cl)c2)CC1=O	> 100 µM	> 100 µM	> 100 µM	> 100 µM	> 100 µM	> 100 µM	> 100 µM	> 100 µM	–	> 100 µM	–	–	–
CN(C)c1ccc(/C=C/c2sc3ccccc3[n+]2C)cc1	8.47 µM and 16.7 µM	9.85 µM and 7.49 µM	10.9 µM and 22.8 µM	–	17.6 µM and 7.41 µM	19.7 µM and 15.3 µM	27.8 µM and 36.3 µM	7.85 µM and 11.9 µM	8.88 µM and 5.81 µM	16 µM and 24.9 µM	3.94 µM and 1.46 µM	4.29 µM and 1.21 µM	11 µM and 5.02 µM
CC(=O)OC1[C@H](OC(C)=O)C2=C(C)[C@@H](OC(C)=O)C[C@@]2(C(C)(C)O)[C@@H](OC(C)=O)[C@H]2[C@@]1(C)[C@@H](OC(C)=O)CC(OC(C)=O)[C@]21CO1 (stereo partly specified)	> 100 µM	> 100 µM	> 100 µM	> 100 µM	> 100 µM	–	> 100 µM	> 100 µM	> 100 µM	> 100 µM	–	–	–
COc1ccc(NCC(=O)Nn2c(-c3ccccc3)nc3ccccc3c2=O)cc1	> 100 µM	> 100 µM	> 100 µM	82.9 µM	41.2 µM	> 100 µM	> 10 µM	> 100 µM	–	> 100 µM	–	–	–
O=C(Nc1ccc(S(=O)(=O)/N=c2\ncccn2C(=O)C(C(F)(F)F)C(F)(F)F)cc1)C(C(F)(F)F)C(F)(F)F	> 100 µM	> 100 µM	> 100 µM	–	> 100 µM	> 100 µM	> 100 µM	> 100 µM	> 100 µM	> 100 µM	–	–	–
CC1OC2OC3C(OCC(O)C3O)OC(=O)[C@]34CCC(C)(C)CC3C3=CCC5[C@@]6(C)C[C@H](O)[C@H](OC7OC(CO)C(O)C(O)C7OC7OCC(OC(=O)CC(C)(O)CC(=O)OC1C(O)C2O)C(O)C7O)[C@@](C)(CO)C6CC[C@@]5(C)[C@]3(C)CC4 (stereo partly specified)	10.1 µM	18.3 µM	6.72 µM	19 µM	26.4 µM	16.9 µM	–	6.69 µM	18.8 µM	19.2 µM	–	–	–
O=C(O)/C=C/c1ccc2c(c1)CC1(Cc3ccccc3C1)C2	> 100 µM	> 100 µM	> 100 µM	–	> 100 µM	> 100 µM	> 100 µM	> 100 µM	87.7 µM	> 100 µM	–	–	–
CCOC(=O)c1c(SC(=O)c2ccc(OC)cc2)n(-c2ccccc2)c(=S)n(-c2ccccc2)c1=O	> 100 µM	> 100 µM	> 100 µM	52.5 µM	> 100 µM	38 µM	> 100 µM	> 100 µM	–	> 100 µM	–	–	–
C=C1C(=O)O[C@H]2C[C@@H]1[C@@H](O)[C@H](O)[C@@H](C)CCCC(C)=CCC[C@@]2(C)O	42.7 µM	27.8 µM	43.9 µM	–	26.5 µM	> 100 µM	74.1 µM	36.4 µM	41.2 µM	30.4 µM	–	–	–
CC1(C)OC2OC(C(COS(=O)(=O)C(F)(F)F)N=[N+]=[N-])C(OC(=O)c3ccccc3)C2O1 (stereo unspecified)	> 100 µM	> 100 µM	> 100 µM	> 100 µM	> 100 µM	–	> 100 µM	> 100 µM	> 100 µM	> 100 µM	–	–	–
